# Experimental data: patent US12384808B2, “Modulators of TNF-α activity” (Forward Therapeutics, Inc., priority 2022, dated 2025)
# Target: TNFα (Homo sapiens, UniProt P01375)
# Experiment: TNFα Induced HEK Blue Cellular Assay
# Format: cell-based
# Settings: HEK Blue TNFα reporter cells, TNFα 100 pg/ml, 24 hrs at 37° C., secreted alkaline phosphatase (QUANTI-Blue) read at 620 nm; read-out: IC50 value
# Outline: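 IC50 fitted with a 4-parameter logistic model from % inhibition, normalised to DMSO controls with and without stimulation. Readout: QUANTI-Blue SEAP at 620 nm after 24 h, 37 °C exposure to TNFα (100 pg/ml final) and test compound at […]–0.5 nM final.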
# Sequence of TNFα (P01375 77-233 limits assumed): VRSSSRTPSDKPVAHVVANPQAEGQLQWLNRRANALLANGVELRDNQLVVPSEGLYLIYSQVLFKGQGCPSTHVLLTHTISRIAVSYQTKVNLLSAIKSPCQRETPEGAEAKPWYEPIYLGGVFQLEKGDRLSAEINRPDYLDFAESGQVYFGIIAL
row,Structure (SMILES),IC50
1,"[2H]C([2H])([2H])N1C(=O)c2cccc(OC(F)F)c2[C@H]2C[C@@H]1c1nc3cc(F)c(-c4ccc(P(C)(C)=O)nc4C)cc3n12 [Example 97, (7R,14R)-1-(difluoromethoxy)-11-(6-(dimethylphosphoryl)-2-methylpyridin-3-yl)-10-fluoro-6-(methyl-d3)-6,7-dihydro-7,14-methanobenzo[f]benzo[4,5]imidazo[1,2-a][1,4]diazocin-5(14H)-one]",< 100 nM
2,"CN1C(=O)c2cccc(OC(F)F)c2[C@H]2C[C@@H]1c1nc3ccc(-c4cnc(OCP(C)(C)=O)nc4)cc3n12 [Example 9, (1R,11R)-18-(difluoromethoxy)-5-{2-[(dimethylphosphoryl)methoxy]pyrimidin-5-yl}-12-methyl-2,9,12-triazapentacyclo[9.8.1.0^{2,10}.0^{3,8}.0^{14,19}]icosa-3(8),4,6,9,14(19),15,17-heptaen-13-one]",100 to 1000 nM
3,"[2H]C([2H])([2H])N1C(=O)c2cccc(OC(F)F)c2[C@H]2C[C@@H]1c1nc3cc(F)c(-c4cnc(P(C)(C)=O)cc4C)cc3n12 [Example 89, (7R,14R)-1-(difluoromethoxy)-11-(6-(dimethylphosphoryl)-4-methylpyridin-3-yl)-10-fluoro-6-(methyl-d3)-6,7-dihydro-7,14-methanobenzo[f]benzo[4,5]imidazo[1,2-a][1,4]diazocin-5(14H)-one]",10000 to 30000 nM
4,"[2H]C([2H])([2H])N1C(=O)c2cccc(OC(F)F)c2[C@H]2C[C@@H]1c1nc3ccc(-c4ccc(P(C)(C)=O)cc4F)cc3n12 [Example 53, (7R,14R)-1-(difluoromethoxy)-11-(4-(dimethylphosphoryl)-2-fluorophenyl)-6-(methyl-d3)-6,7-dihydro-7,14-methanobenzo[f]benzo[4,5]imidazo[1,2-a][1,4]diazocin-5(14H)-one]",< 100 nM
5,"[2H]C([2H])([2H])N1C(=O)c2cccc(OC(F)F)c2[C@H]2C[C@@H]1c1nc3ccc(-c4ccc(P(C)(C)=O)cc4C(F)(F)F)cc3n12 [Example 104, (7R,14R)-1-(difluoromethoxy)-11-(4-(dimethylphosphoryl)-2-(trifluoromethyl)phenyl)-6-(methyl-d3)-6,7-dihydro-7,14-methanobenzo[f]benzo[4,5]imidazo[1,2-a][1,4]diazocin-5(14H)-one]",100 to 1000 nM
6,"CP(C)(=O)COc1ncc(-c2ccc3nc4n(c3c2)[C@@H]2C[C@H]4NC(=O)c3cccc(OC(F)F)c32)s1 [Example 42, (1R,11R)-18-(difluoromethoxy)-5-{2-[(dimethylphosphoryl)methoxy]-1,3-thiazol-5-yl}-2,9,12-triazapentacyclo[9.8.1.0^{2,10}.0^{3,8}.0^{14,19}]icosa-3(8),4,6,9,14(19),15,17-heptaen-13-one]",< 100 nM
7,"[2H]C([2H])([2H])N1C(=O)c2cccc(O)c2[C@H]2C[C@@H]1c1nc3ccc(-c4cc(F)c(P(C)(C)=O)cc4F)cc3n12 [Example 71, (7R,14R)-11-(4-(dimethylphosphoryl)-2,5-difluorophenyl)-1-hydroxy-6-(methyl-d3)-6,7-dihydro-7,14-methanobenzo[f]benzo[4,5]imidazo[1,2-a][1,4]diazocin-5(14H)-one]",10000 to 30000 nM
8,"CN1C(=O)c2cccc(OC(F)F)c2[C@H]2C[C@@H]1c1nc3ccc(-c4cnc(OCP(C)(C)=O)s4)cc3n12 [Example 25, (1R,11R)-18-(difluoromethoxy)-5-{2-[(dimethylphosphoryl)methoxy]-1,3-thiazol-5-yl}-12-methyl-2,9,12-triazapentacyclo[9.8.1.0^{2,10}.0^{3,8}.0^{14,19}]icosa-3(8),4,6,9,14(19),15,17-heptaen-13-one]",< 100 nM
9,"CP(C)(=O)c1ccc(-c2cc3c(cc2F)nc2n3[C@@H]3C[C@H]2NC(=O)c2cccc(OC(F)F)c23)cc1F [Example 66, (7R,14R)-1-(difluoromethoxy)-11-(4-(dimethylphosphoryl)-3-fluorophenyl)-10-fluoro-6,7-dihydro-7,14-methanobenzo[f]benzo[4,5]imidazo[1,2-a][1,4]diazocin-5(14H)-one]",< 100 nM
10,"CP(C)(=O)c1ccc(-c2ccc3nc4n(c3c2)[C@@H]2C[C@H]4N(C3CC3)C(=O)c3cccc(OC(F)F)c32)cc1F [Example 48, (1R,11R)-12-cyclopropyl-18-(difluoromethoxy)-5-[4-(dimethylphosphoryl)-3-fluorophenyl]-2,9,12-triazapentacyclo[9.8.1.0^{2,10}.0^{3,8}.0^{14,19}]icosa-3(8),4,6,9,14(19),15,17-heptaen-13-one]",< 100 nM
11,"CN1C(=O)c2cccc(OC(F)F)c2[C@H]2C[C@@H]1c1nc3ccc(-c4ccc(P(C)(C)=O)nc4)cc3n12 [Example 2, (7R,14R)-1-(difluoromethoxy)-11-(6-(dimethylphosphoryl)pyridin-3-yl)-6-methyl-6,7-dihydro-7,14-methanobenzo[f]benzo[4,5]imidazo[1,2-a][1,4]diazocin-5(14H)-one]",< 100 nM
12,"[2H]C([2H])([2H])N1C(=O)c2cccc(OC(F)F)c2[C@H]2C[C@@H]1c1nc3ccc(-c4ccc(P(C)(C)=O)nc4F)cc3n12 [Example 92, (7R,14R)-1-(difluoromethoxy)-11-(6-(dimethylphosphoryl)-2-fluoropyridin-3-yl)-6-(methyl-d3)-6,7-dihydro-7,14-methanobenzo[f]benzo[4,5]imidazo[1,2-a][1,4]diazocin-5(14H)-one]",< 100 nM
13,"CN1C(=O)c2cccc(OC(F)F)c2[C@H]2C[C@@H]1c1nc3ccc(-c4ccc(CP(C)(C)=O)c(F)c4)cc3n12 [Example 79, (7R,14R)-1-(difluoromethoxy)-11-(4-((dimethylphosphoryl)methyl)-3-fluorophenyl)-6-methyl-6,7-dihydro-7,14-methanobenzo[f]benzo[4,5]imidazo[1,2-a][1,4]diazocin-5(14H)-one]",< 100 nM
14,"[2H]C([2H])([2H])N1C(=O)c2cccc(OC(F)F)c2[C@H]2C[C@@H]1c1nc3ccc(-c4cc(F)c(CP(C)(C)=O)c(F)c4)cc3n12 [Example 69, (7R,14R)-1-(difluoromethoxy)-11-(4-((dimethylphosphoryl)methyl)-3,5-difluorophenyl)-6-(methyl-d3)-6,7-dihydro-7,14-methanobenzo[f]benzo[4,5]imidazo[1,2-a][1,4]diazocin-5(14H)-one]",< 100 nM
15,"[2H]C([2H])([2H])N1C(=O)c2cccc(OC(F)F)c2[C@H]2C[C@@H]1c1nc3ccc(-c4ccc(P(C)(C)=O)nc4Cl)cc3n12 [Example 94, (7R,14R)-11-(2-chloro-6-(dimethylphosphoryl)pyridin-3-yl)-1-(difluoromethoxy)-6-(methyl-d3)-6,7-dihydro-7,14-methanobenzo[f]benzo[4,5]imidazo[1,2-a][1,4]diazocin-5(14H)-one]",< 100 nM

# Results, then the compound that gave them:
row,IC50,Structure (SMILES)
1,100 to 1000 nM,"[2H]C([2H])([2H])N1C(=O)c2cccc(OC(F)F)c2[C@H]2C[C@@H]1c1nc3ccc(-c4cc(F)c(P(C)(C)=O)c(C)n4)cc3n12 [Example 123, (7R,14R)-1-(difluoromethoxy)-11-(5-(dimethylphosphoryl)-4-fluoro-6-methylpyridin-2-yl)-6-(methyl-d3)-6,7-dihydro-7,14-methanobenzo[f]benzo[4,5]imidazo[1,2-a][1,4]diazocin-5(14H)-one]"
2,< 100 nM,"CCP(=O)(CC)c1ccc(-c2ccc3nc4n(c3c2)[C@@H]2C[C@H]4NC(=O)c3cccc(OC(F)F)c32)c(F)c1 [Example 138, (7R,14R)-11-(4-(diethylphosphoryl)-2-fluorophenyl)-1-(difluoromethoxy)-6,7-dihydro-7,14-methanobenzo[f]benzo[4,5]imidazo[1,2-a][1,4]diazocin-5(14H)-one]"
3,< 100 nM,"[2H]C([2H])([2H])N1C(=O)c2cccc(OC(F)F)c2[C@H]2C[C@@H]1c1nc3ccc(-c4ccc(P(C)(C)=O)c(Cl)c4)cc3n12 [Example 117, (7R,14R)-11-(3-chloro-4-(dimethylphosphoryl)phenyl)-1-(difluoromethoxy)-6-(methyl-d3)-6,7-dihydro-7,14-methanobenzo[f]benzo[4,5]imidazo[1,2-a][1,4]diazocin-5(14H)-one]"
4,< 100 nM,"CP(C)(=O)c1ccc(-c2ccc3nc4n(c3c2F)[C@@H]2C[C@H]4NC(=O)c3cccc(OC(F)F)c32)cc1F [Example 140, (7R,14R)-1-(difluoromethoxy)-11-(4-(dimethylphosphoryl)-3-fluorophenyl)-12-fluoro-6,7-dihydro-7,14-methanobenzo[f]benzo[4,5]imidazo[1,2-a][1,4]diazocin-5(14H)-one]"
5,< 100 nM,"[2H]C([2H])([2H])N1C(=O)c2cccc(OC(F)F)c2[C@H]2C[C@@H]1c1nc3ccc(-c4ccc(P(C)(C)=O)c(F)c4)nc3n12 [Example 141, (7R,14R)-1-(difluoromethoxy)-11-(4-(dimethylphosphoryl)-3-fluorophenyl)-6-(methyl-d3)-6,7-dihydro-7,14-methanobenzo[f]pyrido[3′,2′:4,5]imidazo[1,2-a][1,4]diazocin-5(14H)-one]"
6,< 100 nM,"[2H]C([2H])([2H])N1C(=O)c2cccc(OC(F)F)c2[C@H]2C[C@@H]1c1nc3ccc(-c4cc(F)c(C(C)P(C)(C)=O)c(F)c4)cc3n12 (single isomer, unassigned) [Example 112, (7R,14R)-1-(difluoromethoxy)-11-(4-((S or R)-1-(dimethylphosphoryl)ethyl)-3,5-difluorophenyl)-6-(methyl-d3)-6,7-dihydro-7,14-methanobenzo[f]benzo[4,5]imidazo[1,2-a][1,4]diazocin-5(14H)-one]"
7,< 100 nM,"[2H]C([2H])([2H])N1C(=O)c2cccc(OC(F)F)c2[C@H]2C[C@@H]1c1nc3ccc(-c4cnc(P(C)(C)=O)c(F)c4)cc3n12 [Example 124, (7R,14R)-1-(difluoromethoxy)-11-(6-(dimethylphosphoryl)-5-fluoropyridin-3-yl)-6-(methyl-d3)-6,7-dihydro-7,14-methanobenzo[f]benzo[4,5]imidazo[1,2-a][1,4]diazocin-5(14H)-one]"
